According to US5998596A, “Inhibition of protein kinase activity by aptameric action of oligonucleotides” (The United States of America as represented by the …):
“Also recorded” adds a separate entry of the source. In the oligonucleotide strings, read from the 5' end, every base follows the letter of its sugar. An asterisk marks phosphorothioate; unmarked linkages are phosphodiester. Other units and linkages are bracketed, terminal groups are in braces. A string of capitals states the bases alone. d = 2'-deoxy (DNA)

Tests used:
[1] = system: cellular phosphotyrosine content of K562 cells; test: Western analysis of total cellular phosphotyrosine content after electroporation of K562 cells; type: cell-based, human; conditions: K562 cells electroporated with 100 μM ODN, one hour later
Protocol: One hundred micrograms of protein from cell lysates were separated on a 7% SDS polyacrylamide gel. Transfer was performed overnight at 50 volts, 4° C., in a 0.2 M glycine, 25 mM Tris, pH 8.3, 0.15% SDS, 20% methanol buffer, onto […] nitrocellulose (Schleicher and Schuell Inc.). For cellular phosphotyrosine blots, Western probing was performed as described previously, with modifications (SARTOR, et al, 1991). Briefly, membranes were blocked for 2 hours with 5% albumin in TTBS (20 mM Tris HCL, pH 7.6; 0.05% Tween 20; 0.9% sodium chloride), probed for 1 hour with antiphosphotyrosine antibody (Upstate Biotechnology Inc., Lake Placid, N.Y.) diluted 1:500 in TTBS, followed by rabbit anti-mouse antibody (Cappel Research Products) and then [^125 I] protein A Sepharose (Amersham Corp., Arlington Heights, Ill.). Membranes were exposed to Kodak X-OMAT AR film overnight at -70° C. with intensifying screens.
Electroporation was performed as described (40). Briefly, 1-5×10^6 cells in 1 ml of RPMI 1640 with 10% fetal calf serum were placed into 0.4 cm gap electroporation chambers and electroporated with a Cell-Porator Electroporation System 1 (all from GIBCO BRL, Grand Island, N.Y.) at 800 microfarrads, 300 volts, at room temperature. Cells were then incubated at 37° C. for 1 hour before manipulation.
In K562 cells p210^bcr-abl is a major kinase responsible for protein tyrosine phosphorylation (38, 39). Changes in enzyme activity are therefore reflected by changes in cellular phosphotyrosine content.

[2] = system: p210^bcr-abl kinase; test: Immunoprecipitation kinase assay of p210bcr-abl (autophosphorylation), ODN added to kinase reaction; type: biochemical, human; conditions: for Percent Remaining Activity of p210^bcr-abl kinase relative to control: ODN 1 μM, phosphorothioate capped, mean ± SE of three experiments; for inhibition of p210^bcr-abl kinase activity in vitro (in words): ODN at 1 μM added to the immunoprecipitated enzyme
Protocol: The p210^bcr-abl kinase, src kinase and cdc-2 kinase were immunoprecipitated from K562 cells. The p145^abl kinase was immunoprecipitated from PC3M cells, PDGF receptor kinase from 3T3 cells, and EGF receptor kinase from A431 cells. MAP kinase was utilized as a pure protein and lck kinase was immunoprecipitated from peripheral blood lymphocytes of a normal volunteer.
Cells were washed in phosphate buffered saline (PBS) and 0.5-5×10^6 cells were solubilized in 1 ml of the specified cell lysis buffers. Unless otherwise stated, all cell lysis buffers contained the following protease inhibitors: 20 μg/ml leupeptin, 1 μg/ml aprotinin, and 1 mM phenylmethylsulfonylfluroide. For p210^bcr-abl and […] immunoprecipitation, cells were lysed with ABL lysis buffer (25 mM imidazole, pH 7.2, 0.5% NP40, 50 mM NaCl, 1 mM Na3 VO4) and lysates were clarified at 14,000 g. 4° C. for 30 minutes. Cell lysis for all other proteins was performed according to the references describing the various immunoprecipitation kinase assays.
(§1) Immunoprecipitation kinase assays of p210^bcr-abl p145^abl were performed as described, with modifications (15). Briefly, for p210^bcr-abl, 1 μg of anti-bcr antibody (clone 7C6, Oncogene Science, Uniondale, N.Y.) was added to lysates prepared from 0.5-1×10^6 K562 cells. For p145^abl, 1 μg of anti-c-abl antibody (clone 24-21), which binds to the C-terminal domain of p145^abl, was added to lysates prepared from 5×10^6 PC3M cells. After incubating 1 hour at 4° C., complexes were precipitated by incubating with protein A-Sepharose coated with rabbit anti-mouse immunoglobulin (Cappel Research Products, Durham, N.C.) for 30 minutes. The complexes were then washed as follows: ABL lysis buffer×2, PBS×1, and ABL assay buffer×1 (24 mM imidazole, pH 7.2, 1 mg/ml bovine serum albumin, and 10 mM MnCl). For p145^abl assays ABL assay buffer contained 20 mM MnCl. To access the activity of p210^bcr-abl on substrate phosphorylation, acid inactivated enolase (Sigma Chemical Co., St. Louis, Mo.) was added as described (15).
(§2) ODNs were added to kinase reaction buffers not more than 5 minutes prior to the addition of ATP. Reactions were initiated by the addition of [γ^-32 P] ATP (3000 Ci/mmole; Amersham Corp., Arlington Heights, Ill.) and quenched by the addition of 5× gel loading buffer and heating to 95° C. Kinase reactions were run for 1-10 minutes at room temperature, except for EGFR, p145^abl, and MAP kinase, which were run at 30° C. The products were then electrophoresed on SDS-polyacrylamide gels: 7% for p210^bcr-abl, EGFR, and PDGFR, 8% for p145^abl, 10% for src, lck, and cdc-2 kinase, and 12% for MAP kinase. Gels were dried and reaction products were visualized by direct autoradiography at -70° C. with Kodak X-OMAT AR film. To determine the inhibitory concentration 50, i.e., the concentration required to inhibit enzyme activity by 50% (IC50) and Ki values, gel slices containing the band of interest were excised and analyzed by Cerenkov counting.

[3] = system: p210^bcr-abl kinase in K562 cells; test: Immunoprecipitation kinase assay of p210bcr-abl from ODN treated K562 cells; type: cell-based, human; conditions: K562 cells incubated 3 days with 50 μM ODN, washed
Protocol: as §1, §2
The effects of ODN1 on a cellular system were assessed. […] After 3 days, cells were washed and p210^bcr-abl kinase activity was measured. […] Neither cellular p210^bcr-abl protein content nor cell growth was affected by ODN treatment (data not shown).

[4] = system: K562 cells; test: K562 colony formation in soft agar; type: cell-based, human; conditions: 50 μM ODN, two weeks, not electroporated
Protocol: K562, NIH 3T3, and A431 cells were purchased from the American Type Culture Collection (Rockville, Md.). PC3M prostate cancer cells were a generous gift from J. Trepel (National Institutes of Health, Bethesda, Md.). K562 and PC3M cells were cultured in RPMI 1640 with 10% heat-inactivated fetal bovine serum (FBS; GIBCO BRL, Grand Island, N.Y.) while NIH 3T3 and A431 cells were cultured in Dulbecco's modified Eagle's medium (Biofluids, Rockville, Md.) with 10% heat inactivated FBS. Cells were maintained at 37° C., 6% carbon dioxide with biweekly media changes. For soft agar cloning, cells were suspended in 0.3% low melting temperature agarose (SeaPlaque FMC BioProducts, Rockland, Me.) in RPMI 1640 with 10% total calf serum and maintained as above.
To evaluate the effects of these various ODNs of K562 cell growth, both growth in liquid culture and growth in soft agar were examined. […] Cells were electroporated in the presence of 50 μM ODN and kept in liquid culture. For soft agar cloning experiments, cells were not electroporated, but were grown in the presence of 50 μM ODN for two weeks. Liquid cultures were replenished with fresh medium containing 50 μM ODN. Two weeks following incubation in liquid culture, the number of trypan blue-excluding cells was determined. No effect on cell growth in liquid culture could be observed with any ODN tested (data not shown).

[5] = system: MAP kinase; test: inhibition; conditions: PS, two linkages at each of 5' and 3' ends, rest phosphodiester; 30 C
[6] = system: PDGF receptor (PDGFR); test: inhibition; conditions: PS, two linkages at each of 5' and 3' ends, rest phosphodiester; autophosphorylation
[7] = listed as BCR-AS all-phosphorothioate

## 5' CCGACCACTTCCGAGTACTAG-3' (chemistry not given here) [ABL-1bSCR, the scrambled version of ABL-1bAS]
[1]
  total cellular protein phosphotyrosine content: less marked effects

## 5' GGCCGTGCAGCTCGCACCGGC 3' (chemistry not given here) [ODN1C, scrambled version of ODN1]
[2]
  Percent Remaining Activity of p210^bcr-abl kinase relative to control: 74 ± 15%

## 5' GGCGGCCGCGCTGCAACCCGT 3' (chemistry not given here) [ODN1A, scrambled version of ODN1]
[2]
  Percent Remaining Activity of p210^bcr-abl kinase relative to control: 42 ± 6.9%

## 5' GGCGGCGGCGGCGGCGGCGGC 3' (chemistry not given here) [SEQ ID NO.: 11, 21mer consisting of seven tandem GGC repeats]
[2]
  inhibition of p210^bcr-abl kinase activity in vitro (in words): inhibitory activity equivalent to ODN1

## 5' TCCGCGAACCCGGTGCGCCGG 3' (chemistry not given here) [ODN1D, scrambled version of ODN1 / BCR-AS]
[2]
  Percent Remaining Activity of p210^bcr-abl kinase relative to control: 79 ± 79%
  inhibition of p210^bcr-abl kinase activity in vitro (in words): does not inhibit kinase activity
[3]
  p210^bcr-abl kinase activity of ODN treated K562 cells: did not inhibit kinase activity
[1]; listed as BCR-SCR
  total cellular protein phosphotyrosine content: effectively lowered protein phosphotyrosine content; also recorded: reduced protein phosphotyrosine content
[4]
  ability to form colonies in soft agar: inhibited the ability of these cells to form colonies in soft agar

## 5' TGCCCAACGTCGCGCCGGCGG 3' (chemistry not given here) [ODN1B, scrambled version of ODN1]
[2]
  Percent Remaining Activity of p210^bcr-abl kinase relative to control: 59 ± 6.4%

## 5'-CGCTGAAGTTTTGAACTCTGC-3' (chemistry not given here) [B/A-AS, spans the bcr-abl fusion region, complementary to 11 bcr and 10 abl nucleotides of the mature fusion transcript]
[3]
  p210^bcr-abl kinase activity of ODN treated K562 cells: inhibited kinase activity
[1]
  total cellular protein phosphotyrosine content: less marked effects; also recorded: no effect
[4]
  ability to form colonies in soft agar: failed to effect the cloning ability of the cells

## 5'-GTCCACCATGGCGCGGCCGGC-3' [ODN1 2'-methoxy modified sugars] (2'-O-methyl modified sugars, pattern not given here)
[2]
  inhibition of p210^bcr-abl kinase activity in vitro (in words): least effective

## 5'-GTCCACCATGGCGCGGCCGGC-3' [ODN1 all phosphodiester] (unmodified DNA)
[2]
  inhibition of p210^bcr-abl kinase activity in vitro (in words): intermediate potencies
[1]; listed as BCR-AS phosphodiester
  total cellular protein phosphotyrosine content: equally effective

## 5'-GTCCACCATGGCGCGGCCGGC-3' [ODN1 all phosphorothioate] (DNA dG*dT*dC*dC*dA*dC*dC*dA*dT*dG*dG*dC*dG*dC*dG*dG*dC*dC*dG*dG*dC)
[2]
  inhibition of p210^bcr-abl kinase activity in vitro (in words): most potent inhibitor
[2]; [7]
  inhibition of p210^bcr-abl kinase activity in vitro (in words): most effective inhibitor
[1]; [7]
  total cellular protein phosphotyrosine content: no effect

## 5'-TCCAGGCTGCTGCCCCATAAA-3' (chemistry not given here) [ABL-1bAS, complementary to nucleotides -3 to +18 of the abl lb mRNA]
[1]
  total cellular protein phosphotyrosine content: less marked effects

## 5'-TGTACGTCCGGCTTACTAGTA-3' (chemistry not given here) [B/A-SCR, scrambled version of the B/A ODN]
[3]
  p210^bcr-abl kinase activity of ODN treated K562 cells: did
[1]
  total cellular protein phosphotyrosine content: effectively lowered protein phosphotyrosine content; also recorded: reduced protein phosphotyrosine content
[4]
  ability to form colonies in soft agar: inhibited the ability of these cells to form colonies in soft agar

## GGCG
[2]
  inhibition of p210^bcr-abl kinase activity in vitro (in words): no inhibitory activity

## GTCCACCATGGCGCGGCCGGC [ODN1 (BCR-AS), phosphorothioate capped]
[5]
  IC50: > 100 µM
[6]
  IC50: 4.4 µM
